# Columns and labels:
# [1] = test system: androgenic receptor (AR); experiment: Western blotting of testosterone-induced AR expression in LNCaP cells; format: cell-based
# Method: LNCaP cells were treated with testosterone propionate (TP) to induce androgenic receptor signaling, treated with Abeliophyllum distichum leaf hot water (D.W.), ethanol (EtOH), and hexane (Hexane) extracts, followed by confirming the efficacy of inhibiting the expression of an androgenic receptor (AR, SantaCruz), 5 alpha reductase (5AR2, ABCam), and prostate-specific antigen (PSA, SantaCruz) to compare the inhibitory effect on androgenic receptor signaling-related factors per Abeliophyllum distichum leaf extract LNCaP cells in LNCaP cells. The LNCaP cells (2×10^6) were seeded in 6-well plates, and treated with 100 nM testosterone propionate (TP, Tokyo Chemical Industry) and 100 μg/mL each of Abeliophyllum distichum leaf hot water (D.W.), ethanol (EtOH), and hexane (Hexane) extracts for 24 hours. […] After finishing the treatment of the cells, an androgenic receptor signaling-inhibitory effect was analyzed using western blotting. […] Bands were then detected using an Azure c300 imaging system (Azure Biosystems) by chemiluminescence with an HPR substrate (Advansta Inc., San Jose, CA, USA). Band intensities were quantified by setting the area of each sample using ImageJ software (NIH ver. 1.48, USA) and then setting the area of corresponding β-actin in the same manner as used above, and dividing the area of β-actin by the area of each sample. […]
# [2] = test system: 5 alpha reductase (5AR2); experiment: Western blotting of testosterone-induced 5AR2 expression in LNCaP cells; format: cell-based
# Method: (§3) The LNCaP cells (2×10^6) were seeded in 6-well plates, and treated with 100 nM testosterone propionate (TP, Tokyo Chemical Industry) and 100 μg/mL each of Abeliophyllum distichum leaf hot water (D.W.), ethanol (EtOH), and hexane (Hexane) extracts for 24 hours. Here, a group treated with 1 μg/mL finasteride (Fi), which is an androgen inhibiting drug, was used as a positive control. After finishing the treatment of the cells, an androgenic receptor signaling-inhibitory effect was analyzed using western blotting. First, the cells were lysed in a protein inhibitor cocktail (Sigma)-containing radioimmunoprecipitation assay (RIPA) buffer, and a protein concentration was estimated using a BCA assay, followed by electrophoresis in a 12% SDS polyacrylamide gel. The gel was then transferred to a membrane using Mini Trans-Blot cells (Bio rad). Subsequently, the membrane was treated with primary antibodies at 4° C. for 12 hours. […] Bands were then detected using an Azure c300 imaging system (Azure Biosystems) by chemiluminescence with an HPR substrate (Advansta Inc., San Jose, CA, USA). Band intensities were quantified by setting the area of each sample using ImageJ software (NIH ver. 1.48, USA) and then setting the area of corresponding β-actin in the same manner as used above, and dividing the area of β-actin by the area of each sample.
# [3] = test system: prostate-specific antigen (PSA); experiment: Western blotting of testosterone-induced PSA expression in LNCaP cells; format: cell-based; conditions: compared among IQ, Rutin, CA and IR
# Method: as §3
# [4] = test system: PI3K; experiment: Western blotting of testosterone-induced PI3K expression in prostatic cells; format: cell-based; conditions: depending on the concentration of isoquercetin
# [5] = test system: PI3K; experiment: Western blotting of PI3K expression in testosterone-treated BPH-1 cells; format: cell-based; conditions: testosterone 100 nM, 25, 50 and 100 μM, 24 hours, concentration dependent
# [6] = test system: PCNA; experiment: Western blotting of PCNA expression in testosterone-treated BPH-1 cells; format: cell-based; conditions: testosterone 100 nM, 25, 50 and 100 μM, 24 hours, concentration dependent
# [7] = test system: cyclin D1; experiment: Western blotting of cyclin D1 expression in testosterone-treated BPH-1 cells; format: cell-based; conditions: testosterone 100 nM, 25, 50 and 100 μM, 24 hours, concentration dependent
# [8] = test system: BPH animal models; experiment: Prostate indexes in BPH animal model; format: in vivo, SD rats; conditions: 4 weeks
# Method: All experiments were conducted in an aseptic environment. Three days after surgical recovery for the BPH-induced group (BPH), testosterone was dissolved in corn oil and then subcutaneously injected daily at 3 mg/kg, inducing BPH. For an Abeliophyllum distichum leaf ethanol extract-administered group (BPH+ADLE), an Abeliophyllum distichum leaf ethanol extract was dissolved in sterile distilled water and orally administered using a zonde at 100 mg/kg for 4 weeks. For a saw palmetto-administered group (BPH+Saw) as a positive control, saw palmetto was dissolved in sterile distilled water and orally administered at 100 mg/kg, and for a finasteride-administered group (BPH+Fi), finasteride was orally administered using a zonde at 1 mg/kg per day for 4 weeks. After the experiment, the rats were sacrificed using zoletil, blood samples were collected through heart puncture, and serum was then separated and stored at −80° C. The prostate was separated and weighed using RNAse-free surgical tools, and stored at −80° C., followed by western blotting.
# Meanwhile, isoquercetin (IQ) administration was also performed in the same manner and using the same controls as described above, and for a low concentration-administered group (BPH+IQ1), IQ was dissolved in sterile distilled water and then orally administered at 1 mg/kg, and for a high concentration-administered group (BPH+IQ10), IQ was dissolved in sterile distilled water and then orally administered using a zonde at 10 mg/kg for 4 weeks.
# [9] = test system: 5α-reductase 2 (5AR2); experiment: Western blotting of 5AR2 in prostate tissue of BPH animal model; format: in vivo, SD rats; conditions: oral 1 mg/kg or 10 mg/kg, 4 weeks; depending on intake concentration
# Method: (§1) All experiments were conducted in an aseptic environment. Three days after surgical recovery for the BPH-induced group (BPH), testosterone was dissolved in corn oil and then subcutaneously injected daily at 3 mg/kg, inducing BPH. For an Abeliophyllum distichum leaf ethanol extract-administered group (BPH+ADLE), an Abeliophyllum distichum leaf ethanol extract was dissolved in sterile distilled water and orally administered using a zonde at 100 mg/kg for 4 weeks. […]
# (§2) For animal experimental groups, protein expression of androgen signaling-related factors, 5α-reductase 2 (5AR2), steroid receptor coactivator 1 (SRC1), an estrogen receptor (ER), and a prostate-specific antigen (PSA), were analyzed. […] Subsequently, bands were then detected using an Azure c300 imaging system (Azure Biosystems) by chemiluminescence with an HPR substrate (Advanta Inc., San Jose, CA, USA). Band intensities were quantified by setting the area of each sample using ImageJ software (NIH ver. 1.48, USA) and then setting the area of corresponding β-actin in the same manner as used above, and dividing the area of β-actin by the area of each sample.
# [10] = test system: steroid receptor coactivator 1 (SRC1); experiment: Western blotting of SRC1 in prostate tissue of BPH animal model; format: in vivo, SD rats; conditions: oral 1 mg/kg or 10 mg/kg, 4 weeks; depending on intake concentration
# Method: as §1, §2
# [11] = test system: AR; experiment: Western blotting of AR in prostate tissue of BPH animal model; format: in vivo, SD rats; conditions: oral 1 mg/kg or 10 mg/kg, 4 weeks; depending on intake concentration
# [12] = compared among IQ, Rutin, CA and IR
# [13] = testosterone-induced, depending on the concentration of isoquercetin
# [14] = oral 1 mg/kg or 10 mg/kg, compared to the BPH-induced model
smiles,measurement,setting,value
"O=c1c(O[C@@H]2O[C@H](CO)[C@@H](O)[C@H](O)[C@H]2O)c(-c2ccc(O)c(O)c2)oc2cc(O)cc(O)c12 [isoquercetin, 3-(β-D-glucopyranosyloxy)-3′,4′,5,7-tetrahydroxyflavone]",effect on testosterone-induced AR expression level among four functional ingredient candidates,[1]; [12],most excellent effect
same,expression of AR,[1]; [13],significantly reduced
same,effect on testosterone-induced 5AR2 expression level among four functional ingredient candidates,[2]; [12],most excellent effect
same,expression of 5AR2,[2]; [13],significantly reduced
same,effect on testosterone-induced PSA expression level among four functional ingredient candidates,[3],most excellent effect
same,expression of PI3K,[4],significantly reduced
same,PI3K expression,[5],significantly reduced
same,PCNA expression,[6],significantly reduced
same,cyclin D1 expression,[7],significantly reduced
same,prostate index,"[8]; oral 1 mg/kg and 10 mg/kg, depending on concentration",lowered
same,prostate weight,[8]; [14],significantly reduced
same,ratio of the prostate weight to a body weight,[8]; [14],significantly decreased
same,expression level of 5AR2 in prostate tissue,[9],reduced
same,expression level of SRC-1 in prostate tissue,[10],reduced
same,expression level of AR in prostate tissue,[11],reduced
